The source of these data is US9067894B1, “Compound, composition, and method of activating GIRK potassium channel and use of same for treating conditions of interest” (Vanderbilt University, priority 2013, dated 2015).

One data set addresses T1, Transporter, GABA (Rattus norvegicus, UniProt P23978).
T1 construct: Ricerca (contract panel)
Description: Radioligand displacement (Ricerca). The data set is classed as binding.

The next data set has as its target T2, hERG (Kv11.1) (Homo sapiens, UniProt Q12809).
T2 construct: expressed in transfected cells; host or cells: T-REx-293
Description: Thallium flux assay, hERG-expressing cells. It is filed as cell-based. To be noted: human, T-REx-293 cells expressing hERG (Kv11.1), pH 7.3, at 100 μM; 100% inhibition defined by maximally effective dofetilide; read-out: maximum inhibition of hERG. An excerpt: (§1) Cell Line Construction and Cell Culture. HEK-293 cells co-expressing human GIRK1/2 and rat mGlu8 were generated as previously described (Niswender et al., 2008). A HEK-293 cell line (ATCC, Manassas, Va.) expressing human GIRK1 and human GIRK2 was constructed by transfecting HEK-293 cells with GIRK1 and GIRK2 (Origene, Rockville, Md.) cloned into the pBudCE4.1 vector (Life Technologies, Carlsbad, Calif.) using FuGene 6 (Promega, Madison, Wis.) transfection reagent. Unless otherwise noted, other ion channel-expressing cells were prepared by transfecting HEK-293 cells with individual or combinations of subunits: GIRK1, pCMV6-A-BSD; GIRK2, pCMV6-A-puro; GIRK3, pCMV6-A-hygro; GIRK4, pCMV6-A-AC; Kv7.4, pIRESneo3. The Kir2.1 and hERG-expressing cell lines were made by transfecting T-REx-293 cells (Life Technologies, Carlsbad, Calif.) with Kir2.1 and Kv11.1, respectively, cloned into pcDNA5TO. Monoclonal cell lines were produced by limiting-dilution cloning of antibiotic-resistant cells and functional selection using the thallium flux assay described below. Unless otherwise noted, cells were maintained in Minimal Essential Medium, Alpha Medium (Mediatech, Manassas, Va.) supplemented with 10% fetal bovine serum (Sigma-Aldrich, Saint Louis, Mo.) and GlutaGro (Mediatech, Manassas, Va.), referred to henceforth as cell culture medium. Cell culture medium was further supplemented with selection antibiotics, as appropriate.
(§2) For thallium flux assays, cells were dislodged from tissue culture flasks using TrypLE Express (Life Technologies, Carlsbad, Calif.), transferred to a 50 mL centrifuge tube, and spun at 500×g for 2 min. The supernatant solution was removed by aspiration and the pellet was resuspended at concentration of ˜1000 cells/μL. Twenty μL/well of the cell suspension was transferred to 384-well, amine-coated assay plates (cat#354719, BD, Franklin Lakes, N.J.) using an electronic multichannel pipette. Plated cells were incubated overnight in a humidified 5% CO2 cell culture incubator at 37° C. […]

A further data set has as its target T3, hERG potassium channel (Homo sapiens, UniProt Q12809).
T3 construct: expressed in transfected cells; host or cells: T-REx-293
Put plainly: Thallium flux assay, hERG-expressing cells. The data set is classed as cell-based. Conditions: hERG inhibition, thallium flux.
Text: as §1, §2

Data set [1] can be described thus: Ascending dose study in mice. It is filed as in vivo, mouse. Conditions: mice, 10, 30, 60 mg/kg intraperitoneal. As to the method:
To begin to assess […] pharmacodynamics properties, an ascending dose study (10, 30, 60 mg/kg, intraperitoneal injection) was performed in mice.

The target in the next data set is T4, GABAB1A (Homo sapiens, UniProt Q9UBS5).
T4 construct: Ricerca
Description: Radioligand displacement (Ricerca). The data set is classed as binding.

The next data set concerns Glutamate (NMDA, PCP). Description: Radioligand displacement (Ricerca). It is filed as binding, rat. To be noted: 10 μM.
The next data set concerns Rolipram (PDE4). Description: Radioligand displacement (Ricerca). It is filed as binding, human. To be noted: 10 μM.
Another data set addresses T5, Cannabinoid CB1 (Homo sapiens, UniProt P21554).
T5 construct: Ricerca
Description: Radioligand displacement (Ricerca). The data set is classed as binding.

Another data set addresses T6, Adenosine A2A (Homo sapiens, UniProt P29274).
T6 construct: Ricerca (contract assay)
Description: Radioligand displacement (Ricerca). It is filed as binding.

Data set [2] is described as follows: Maximal electroshock (MES) model of epilepsy. The data set is classed as in vivo, mouse. To be noted: mice, i.p.; VU0456810 60 mg/kg, sodium valproate 150 mg/kg; vs vehicle. The procedure:
MES stimulation was applied, 30 minutes after injection, through transauricular (ear-clip) electrodes from an electroshock apparatus, HSE Shock Stimulator Type 221, (Harvard Apparatus, Holliston, Mass.) using the following parameters: 100-mA fixed current, a 50-60-Hz pulse frequency, a 0.6-ms pulse width and a 0.3-s stimulus duration. Animals were restrained by hand when applying the electrodes and released at the moment of stimulation to permit observation of the seizure throughout its entire course. Upon completion of the electrical stimulus, the amount of time until death was recorded. […] In this modified MES test, the electrical stimulus that was applied was sufficient to induce seizures and death from maximal seizure in 100% of the control mice.
In all cases, experiments were conducted in a blind manner with respect to the experimenters. Data were evaluated in Excel using one-tailed, unpaired Student's t-test, assuming populations with unequal variance.

For another data set, the system named is Purinergic P2X. Put plainly: Radioligand displacement (Ricerca). The data set is classed as binding, rabbit. Conditions: 10 μM.
A further data set has as its target T7, Estrogen ERα (Homo sapiens, UniProt P03372).
T7 construct: Ricerca
Put plainly: Radioligand displacement (Ricerca). It is filed as binding.

“Also recorded” adds a separate entry of the source. Where two headings read alike, the source gives them in different places.

T3 sequence (Q12809 whole entry): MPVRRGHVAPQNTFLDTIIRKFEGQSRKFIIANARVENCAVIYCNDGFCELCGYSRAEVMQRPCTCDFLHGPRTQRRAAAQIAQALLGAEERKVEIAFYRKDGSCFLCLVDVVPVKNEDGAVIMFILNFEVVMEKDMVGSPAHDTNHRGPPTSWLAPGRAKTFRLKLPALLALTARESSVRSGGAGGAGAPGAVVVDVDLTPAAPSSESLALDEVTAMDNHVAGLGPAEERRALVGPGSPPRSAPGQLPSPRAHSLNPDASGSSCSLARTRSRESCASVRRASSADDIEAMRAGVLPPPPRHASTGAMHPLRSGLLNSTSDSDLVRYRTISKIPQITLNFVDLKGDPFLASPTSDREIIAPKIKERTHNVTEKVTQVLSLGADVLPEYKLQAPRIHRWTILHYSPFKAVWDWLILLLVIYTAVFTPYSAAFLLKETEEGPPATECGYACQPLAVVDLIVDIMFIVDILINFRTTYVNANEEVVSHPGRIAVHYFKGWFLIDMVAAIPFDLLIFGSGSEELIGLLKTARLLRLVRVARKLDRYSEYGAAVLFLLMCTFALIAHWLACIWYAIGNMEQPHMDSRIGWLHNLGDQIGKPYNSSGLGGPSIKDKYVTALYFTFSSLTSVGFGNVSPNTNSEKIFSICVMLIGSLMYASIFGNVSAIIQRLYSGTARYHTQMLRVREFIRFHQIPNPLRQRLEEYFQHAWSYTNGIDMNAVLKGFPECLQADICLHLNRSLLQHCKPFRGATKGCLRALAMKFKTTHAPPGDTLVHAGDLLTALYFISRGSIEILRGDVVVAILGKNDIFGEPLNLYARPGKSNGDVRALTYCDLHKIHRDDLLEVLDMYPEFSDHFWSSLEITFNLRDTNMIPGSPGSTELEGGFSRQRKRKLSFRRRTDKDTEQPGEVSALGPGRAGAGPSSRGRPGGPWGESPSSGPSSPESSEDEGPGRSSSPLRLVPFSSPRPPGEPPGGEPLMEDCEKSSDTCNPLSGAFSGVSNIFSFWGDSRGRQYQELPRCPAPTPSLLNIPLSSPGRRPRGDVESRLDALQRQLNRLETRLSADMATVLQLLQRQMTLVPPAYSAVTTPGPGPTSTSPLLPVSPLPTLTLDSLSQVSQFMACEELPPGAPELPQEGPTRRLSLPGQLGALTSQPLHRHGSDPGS
T2 sequence (Q12809 whole entry): as above
T7 sequence (P03372 whole entry): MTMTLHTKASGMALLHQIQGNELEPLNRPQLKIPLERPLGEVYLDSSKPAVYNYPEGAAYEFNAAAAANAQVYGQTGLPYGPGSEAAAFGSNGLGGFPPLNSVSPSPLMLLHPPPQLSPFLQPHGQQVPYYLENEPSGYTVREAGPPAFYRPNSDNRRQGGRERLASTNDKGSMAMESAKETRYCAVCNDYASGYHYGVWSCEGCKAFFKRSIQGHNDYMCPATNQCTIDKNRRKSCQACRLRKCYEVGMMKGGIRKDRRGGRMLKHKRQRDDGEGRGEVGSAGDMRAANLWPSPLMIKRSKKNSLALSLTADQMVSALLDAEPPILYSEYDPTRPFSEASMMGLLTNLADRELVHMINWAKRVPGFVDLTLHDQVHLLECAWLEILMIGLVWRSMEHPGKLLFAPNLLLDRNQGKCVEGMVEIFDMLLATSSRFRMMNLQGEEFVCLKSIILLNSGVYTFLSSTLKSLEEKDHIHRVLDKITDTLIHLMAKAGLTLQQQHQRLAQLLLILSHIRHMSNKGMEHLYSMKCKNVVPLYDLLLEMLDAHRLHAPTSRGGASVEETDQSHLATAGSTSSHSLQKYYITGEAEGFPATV
T4 sequence (Q9UBS5 15-961 limits assumed): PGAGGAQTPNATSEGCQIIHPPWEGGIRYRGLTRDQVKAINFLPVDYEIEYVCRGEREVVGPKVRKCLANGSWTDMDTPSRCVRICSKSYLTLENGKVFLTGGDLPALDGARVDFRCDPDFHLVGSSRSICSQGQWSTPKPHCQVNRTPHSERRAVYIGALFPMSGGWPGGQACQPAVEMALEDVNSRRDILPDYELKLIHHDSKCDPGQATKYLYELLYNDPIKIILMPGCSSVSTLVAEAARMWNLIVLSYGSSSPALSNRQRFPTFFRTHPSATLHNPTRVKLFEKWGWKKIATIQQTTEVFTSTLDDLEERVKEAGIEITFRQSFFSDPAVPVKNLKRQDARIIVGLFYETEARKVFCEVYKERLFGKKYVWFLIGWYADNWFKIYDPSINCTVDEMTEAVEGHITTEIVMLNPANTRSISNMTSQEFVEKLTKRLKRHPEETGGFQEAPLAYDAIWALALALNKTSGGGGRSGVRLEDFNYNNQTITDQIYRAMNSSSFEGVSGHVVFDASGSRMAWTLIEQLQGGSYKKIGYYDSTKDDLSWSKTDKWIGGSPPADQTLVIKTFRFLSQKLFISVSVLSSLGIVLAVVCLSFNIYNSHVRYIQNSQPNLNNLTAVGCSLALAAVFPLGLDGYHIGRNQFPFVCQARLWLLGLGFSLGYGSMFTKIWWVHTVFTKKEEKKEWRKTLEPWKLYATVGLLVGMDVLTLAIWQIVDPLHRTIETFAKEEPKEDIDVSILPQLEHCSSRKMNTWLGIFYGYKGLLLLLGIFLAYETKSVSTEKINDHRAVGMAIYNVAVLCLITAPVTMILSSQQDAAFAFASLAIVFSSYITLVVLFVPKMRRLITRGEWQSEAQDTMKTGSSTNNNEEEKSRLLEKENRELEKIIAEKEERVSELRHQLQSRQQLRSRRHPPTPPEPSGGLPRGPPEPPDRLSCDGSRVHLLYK
T6 sequence (P29274 whole entry): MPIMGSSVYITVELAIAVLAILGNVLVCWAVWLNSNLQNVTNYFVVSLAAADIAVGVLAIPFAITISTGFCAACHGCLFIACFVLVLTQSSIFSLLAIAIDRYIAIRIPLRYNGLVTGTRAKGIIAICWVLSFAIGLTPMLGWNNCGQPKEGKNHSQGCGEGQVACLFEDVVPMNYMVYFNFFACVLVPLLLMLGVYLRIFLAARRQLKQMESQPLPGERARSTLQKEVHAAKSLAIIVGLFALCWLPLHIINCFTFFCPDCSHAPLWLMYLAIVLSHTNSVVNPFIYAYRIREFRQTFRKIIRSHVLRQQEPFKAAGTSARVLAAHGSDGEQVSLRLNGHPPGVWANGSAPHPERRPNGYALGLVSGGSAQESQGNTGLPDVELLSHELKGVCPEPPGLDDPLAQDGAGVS

`Cc1cc(NC(=O)Nc2ccc(F)c(F)c2)n(-c2ccccc2)n1` [VU0456810, 1-(3,4-difluorophenyl)-3-(3-methyl-1-phenyl-1H-pyrazol-5-yl)urea]: the inhibition at 10 µM amounted to 5% at Transporter, GABA; 11% on GABAB1A; 8% on Cannabinoid CB1; 12% at Adenosine A2A; 1% at Estrogen ERα. For the same molecule, the inhibition at 20 min, 100 µM on hERG (Kv11.1) was ~60%. For the same molecule, the IC50 at hERG potassium channel (read-out: IC50) was ~10 µM; on hERG potassium channel (average ± SEM, read-out: Potency), 10.1 ± 7 µM. In data set [1], the appearance of animals result is “appeared normal and not under obvious distress”. For the same molecule, the “% Inhibition” value in the data set with Glutamate (NMDA, PCP) was determined as 1%; in the data set with Rolipram (PDE4), 11%; with Purinergic P2X, 16%. Besides, the “latency of seizure onset” value in data set [2] is on record as “robust increase; also recorded: highly significant delays in seizure onset”.
